Here are results for one sequence from patent US5489575A, “Polypeptides and their use” (Boman; Hans G., priority 1991, dated 1996).

Format in all cases: cell-based
One experiment deals with Bacillus megaterium. As to the kind of experiment: Inhibition zone assay repeated with Bacillus megaterium (Example 4). The settings on record: times higher than in relation to E. coli. The procedure: (§1) The antibacterial activity of the polypeptide of this invention was determined by inhibition zone assay as described by Hultmark et al. (Hultmark, D., Engstrom, A., Anderson, K., Steiner, H., Bennich, H. and Boman, H. G. (1983). Insect immunity. Attacins, a family of antibacterial proteins from Hyalophora cecropia. EMBO J. 2, 571-576).
(§2) Log-phase bacteria were grown to a density of 100 units on a Klett-summerson photoelectric colorimeter. They were diluted 50 times with LB medium and 50 μl of the bacteria suspension was mixed with 6 ml of 1.0% agarose in LB medium (w/v) and poured on the petri dishes (Falcon 1001 Optilux) with inner diameter 8.65 cm. For E. coli this procedure will give about 2×10^5 bacteria per plate.
The plates were left for 1 hour at room temperature, and holes with 3 mm diameter were made on the solidified agarose. 100 μl of fractions were dried in a speedvac and dissolved in 10 μl H2 O, of which 3 μl was applied to the holes. After 30 min diffusion time the plates were incubated at 30° C. overnight. The diameter of the inhibition zones were measured and the relative unit activity was calculated from a standard curve which was constructed on varying amount of Cecropin A versus activity. One microgram of Cecropin A corresponds to 1000 units of activity. […]

Experiment [1] relates to Acinetobacter calcoaceticus Ac11. As to the kind of experiment: Inhibition zone assay of PR-peptide on different bacteria. The settings on record: strain Ac11. The procedure:
as §1, §2
(§3) The plates were left for 1 hour at room temperature, and holes with 3 mm diameter were made on the solidified agarose. 100 μl of fractions were dried in a speedvac and dissolved in 10 μl H2 O, of which 3 μl was applied to the holes. After 30 min diffusion time the plates were incubated at 30° C. overnight. The diameter of the inhibition zones were measured and the relative unit activity was calculated from a standard curve which was constructed on varying amount of Cecropin A versus activity. One microgram of Cecropin A corresponds to 1000 units of activity.
(§4) The maximum concentration of PR-peptide was 2,5 mM and 3 μl was applied to each well in thin agarose plates seeded with test bacterium. LV values are obtained from a dilution serie and is the lowest concentration giving killing (Muirmark, D., Engstrem, A., Anderson, K., Steiner, H., Bennich, H. and Boman, H. G. (1983))

A further experiment deals with Escherichia coli K12 D21. Described as above. The note with it: strain D21. The procedure:
as §1, §2, §3, §4

A further experiment relates to Bacillus megaterium Bm11. The description is as above. The settings on record: strain Bm11. How it is done: as §1, §2, §3, §4
A further experiment relates to Bacillus subtilis Bs11. The description is as above. The note with it: strain Bs11. How it is done: as §1, §2, §3, §4
The subject of a further experiment is Streptococcus pyrogenes. The experiment is described as above. How it is done: as §1, §2, §3, §4
In another experiment the test system is Proteus vulgaris Pv11. The description is as above. The note with it: strain Pv11. How it is done: as §1, §2, §3, §4
Experiment [2] relates to Pseudomones aeruginose OT97. The experiment is described as above. The settings on record: strain OT97. How it is done: as §1, §2, §3, §4
In experiment [3] the test system is Salmonella typhimurium L12. The experiment is described as above. The settings on record: strain L12. How it is done: as §1, §2, §3, §4
Experiment [4] has as its system Staphylococcus aureus Cowan 1. Described as above. The note with it: strain Cowan 1. The procedure: as §1, §2, §3, §4
In experiment [5] the test system is Escherichia coli Bd2221/75. The experiment is described as above. The settings on record: strain Bd2221/75. How it is done:
as §1, §2, §3, §4

The mark [6] stands for this setting: lowest concentration giving killing, from dilution series.
The mark [7] stands for this setting: maximum concentration 2,5 mM, 3 μl per well, thin agarose plates.

No end group written: not given here.

“RRRPRPPYLPRPRPPPFFPPRLPPRIPPGFPPRFPPRFP [PR-peptide, bactericidal polypeptide isolated from pig small intestine]”: the “average activity against Bacillus megaterium relative to E. coli” value with Bacillus megaterium is reported as “about 3 times”. The LC value in experiment [1] (setting [6]) is 3 µM; with Escherichia coli K12 D21 (setting [6]), 0,3 μM; in the experiment on Bacillus megaterium Bm11 (setting [6]), 0,3 μM; in the experiment with Bacillus subtilis Bs11 (setting [6]) it was 15 µM; in the experiment with Streptococcus pyrogenes (setting [6]) it was 2 µM; with Proteus vulgaris Pv11 (setting [6]), 300 µM. Besides, the LC value was 200 µM in experiment [2] (setting [6]), 1 µM in [3] (setting [6]), 200 µM in [4] (setting [6]) and 0,3 μM in experiment [5] (setting [6]). The Max zone in experiment [1] (setting [7]) is 12,5 mm; with Escherichia coli K12 D21 (setting [7]), 18,3 mm; in the experiment on Bacillus megaterium Bm11 (setting [7]), 17,4 mm; in the experiment with Bacillus subtilis Bs11 (setting [7]), 10,3 mm; in the experiment on Streptococcus pyrogenes (setting [7]), 14,9 mm; with Proteus vulgaris Pv11 (setting [7]), 3,5 mm. Moreover, the Max zone in experiment [2] (setting [7]) was 4,5 mm; in experiment [3] (setting [7]), 15,2 mm; in [4] (setting [7]), 3,7 mm; in [5] (setting [7]), 17,6 mm.
